Measured values taken from ChEMBL document CHEMBL1135913, “Structure-based design, synthesis, and biological evaluation of irreversible human rhinovirus 3C protease inhibitors. 6. Structure-activity studies of orally bioavailable, 2-pyridone-containing peptidomimetics” (J Med Chem, 2002).

Experiments:
[1] = molecular target: T1, Human rhinovirus A protease (Human rhinovirus sp.) (UniProt Q4U254); assay: cytotoxicity against Human Rhinovirus Protease 3C (serotype 14)
T1 sequence (whole entry): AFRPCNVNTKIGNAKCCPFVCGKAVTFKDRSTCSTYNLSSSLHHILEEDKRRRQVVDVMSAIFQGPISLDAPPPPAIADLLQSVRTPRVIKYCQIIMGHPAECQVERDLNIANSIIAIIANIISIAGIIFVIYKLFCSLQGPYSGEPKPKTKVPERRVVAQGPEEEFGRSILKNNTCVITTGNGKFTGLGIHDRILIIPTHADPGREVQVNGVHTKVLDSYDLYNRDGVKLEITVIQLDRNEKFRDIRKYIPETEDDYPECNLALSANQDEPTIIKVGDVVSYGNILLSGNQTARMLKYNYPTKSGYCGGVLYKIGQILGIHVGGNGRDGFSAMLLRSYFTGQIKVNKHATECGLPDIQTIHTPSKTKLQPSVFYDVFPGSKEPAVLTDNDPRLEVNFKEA

[2] = molecular target: T2, Human rhinovirus A protease (Human rhinovirus sp., UniProt Q4U254); assay: Inhibition of HRV Protease 3CP (serotype 14).; parameters: species or system Rhinovirus B
T2 sequence (Q4U254 whole entry): T1 sequence (whole entry)

[3] = molecular target: T1, Human rhinovirus A protease (Human rhinovirus sp.); assay: (§1) cytotoxicity against HRV Protease 3CP (serotype 14)
[4] = molecular target: T1, Human rhinovirus A protease (Human rhinovirus sp.); assay: Inhibitory activity against Human Rhinovirus Protease 3C (serotype 14); conditions: Rhinovirus B
[5] = molecular target: T1, Human rhinovirus A protease (Human rhinovirus sp.); assay: as §1; type: functional
[6] = molecular target: T1, Human rhinovirus A protease (Human rhinovirus sp.); assay: cytotoxicity against HRV Protease 3CP (serotype 1A),; type: functional
[7] = molecular target: T1, Human rhinovirus A protease (Human rhinovirus sp.); assay: cytotoxicity against HRV Protease 3CP (serotype 10),; type: functional
[8] = molecular target: T1, Human rhinovirus A protease (Human rhinovirus sp.); assay: cytotoxicity against HRV Protease 3CP (serotype 14),; type: functional
[9] = molecular target: T1, Human rhinovirus A protease (Human rhinovirus sp.); assay: cytotoxicity against HRV Protease 3CP (serotype 1A); type: functional
[10] = molecular target: T1, Human rhinovirus A protease (Human rhinovirus sp.); assay: cytotoxicity against HRV Protease 3CP (serotype 10); type: functional

| SMILES | EC50 [2] [nM] | CC50 [3] [nM] | K obs / 1 [4] [M⁻¹ s⁻¹] | also measured |
| --- | --- | --- | --- | --- |
| CCOC(=O)/C=C/[C@H](CCC(N)=O)NC(=O)[C@H](Cc1ccccc1)NC(=O)[C@H](CC(C)C)NC(=O)OCc1ccccc1 |  |  |  | CC50 [1]: > 320000 nM |
| CCOC(=O)c1ccc(OCCC2CCN(c3ccc(C)nn3)CC2)cc1 [PIRODAVIR] | 44 | > 10000 |  |  |
| CCOC(=O)/C=C/[C@H](CCC(N)=O)NC(=O)[C@H](Cc1ccccc1)n1ccc(C)c(NC(=O)c2cc(C)on2)c1=O |  |  | 116000 |  |
| CCOC(=O)/C=C/[C@H](C[C@@H]1CCNC1=O)NC(=O)[C@H](Cc1ccccc1)n1cccc(NC(=O)OCc2ccccc2)c1=O |  |  | 380000 | CC50 [5]: > 1000 nM |
| Cc1cc(CCCOc2c(C)cc(-c3noc(C(F)(F)F)n3)cc2C)on1 [PLECONARIL] | 58 | > 10000 |  |  |
| CCOC(=O)/C=C/[C@H](CCC(N)=O)NC(=O)[C@H](CC1CCCCC1)n1cccc(NC(=O)OCc2ccccc2)c1=O | 178 | > 10000 | 6500 |  |
| CCOC(=O)/C=C/[C@H](CCC(N)=O)NC(=O)[C@H](Cc1ccccc1)n1ccc(C)c(NC(=O)OCc2ccccc2)c1=O |  |  | 25800 |  |
| CCOC(=O)/C=C/[C@H](C[C@H]1CCNC1=O)NC(=O)[C@H](Cc1ccccc1)n1cccc(NC(=O)OCc2ccccc2)c1=O | 469 | > 10000 | 6340 |  |
| CCOC(=O)/C=C/[C@H](CCC(N)=O)NC(=O)[C@H](Cc1ccccc1)n1cccc(NC(=O)c2cc(C)on2)c1=O | 16 | > 10000 | 329000 |  |
| CCOC(=O)/C=C/[C@H](CCC(N)=O)NC(=O)[C@H](Cc1ccc(F)c(F)c1)n1cccc(NC(=O)OCc2ccccc2)c1=O | 3 |  | 193000 | CC50 [6]: > 10000 nM; CC50 [7]: > 10000 nM; CC50 [8]: > 10000 nM |
| CCOC(=O)/C=C/[C@H](CCC(N)=O)NC(=O)[C@H](Cc1ccccc1)n1cccc(NC(=O)C2SCCS2)c1=O | 104 |  | 114000 | CC50 [9]: > 10000 nM; CC50 [10]: > 10000 nM; CC50 [5]: > 10000 nM |
